# Read-outs that look alike come from different tables or passages of the source.
# Key:
# RORγt [1] = target: T1, RORγt (Homo sapiens, UniProt P51449); test: RORγt binding test using fluorescent-labeled cholesterol (TR-FRET); conditions: read-out: Binding inhibitory rate of fluorescent-labeled cholesterol to RORγt at test compound 1 μM (%)
# T1 sequence (P51449 1-497 isoform P51449-2): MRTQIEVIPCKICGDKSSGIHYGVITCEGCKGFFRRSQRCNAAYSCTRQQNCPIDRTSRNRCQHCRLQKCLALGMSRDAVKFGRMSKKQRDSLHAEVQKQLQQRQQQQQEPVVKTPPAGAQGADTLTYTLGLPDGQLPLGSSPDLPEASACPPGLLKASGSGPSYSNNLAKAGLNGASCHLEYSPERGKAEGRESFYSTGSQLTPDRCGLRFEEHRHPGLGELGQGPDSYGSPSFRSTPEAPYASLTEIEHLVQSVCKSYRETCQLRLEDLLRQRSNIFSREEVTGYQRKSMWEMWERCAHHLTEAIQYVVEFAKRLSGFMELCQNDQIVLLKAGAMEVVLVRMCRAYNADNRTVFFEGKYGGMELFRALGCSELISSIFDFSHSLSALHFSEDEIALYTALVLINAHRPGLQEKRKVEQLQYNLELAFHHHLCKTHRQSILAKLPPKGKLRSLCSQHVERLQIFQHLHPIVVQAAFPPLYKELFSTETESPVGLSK
# Method: RORγt Binding Test Using Fluorescent-labeled Cholesterol
# The binding activity of the test compound to RORγt was measured by a time resolved fluorescence resonance energy transfer method (TR-FRET) utilizing histidine-tagged RORγt, fluorescent-labeled cholesterol (BODIPY-cholesterol, AVIVA), and terbium-labeled anti-histidine tag antibody (Invitrogen). First, a test compound diluted with an assay buffer (20 mM Tris-HCl (pH 7.5), 100 mM NaCl, 1 mM DTT, 0.1% BSA) was added to a 384 well plate by 3 μL. Then, RORγt diluted with an assay buffer to 240 nM was added by 3 μL, after which fluorescent-labeled cholesterol diluted with the assay buffer to 12 μM was added by 3 μL, and the mixture was stood at room temperature for 20 min. Thereafter, a terbium-labeled anti-histidine tag antibody diluted with the assay buffer to 8 nM was added by 3 μL. The mixture was stood at room temperature for 20 min, and fluorescence intensity (excitation wavelength 320 nm, fluorescence wavelength 520 nm, delay time 100 microseconds) was measured by Envision (PerkinElmer).
# RORγt [2] = target: T1, RORγt; test: Cofactor recruitment test (Alpha Screen, biotinylated SRC-1 peptide); type: biochemical; conditions: read-out: Signal value inhibitory rate at test compound 1 μM (%)
# Method: Cofactor Recruitment Test
# Cofactor recruitment test was performed by Alpha Screen (Histidine Detection Kit, PerkinElmer) method. First, a test compound was diluted with an assay buffer (50 mM Tris-HCl (pH 7.5), 50 mM KCl, 1 mM DTT, 0.1% BSA) and added to a 384 well plate by 5 μL. […] The mixture was stood in a dark place for 1 hr, and the signal value was measured by Envision (PerkinElmer).
# RORγt [3] = target: T1, RORγt; test: Jurkat reporter test (human IL-17 ROR response element luciferase, RORγt vector); type: cell-based; conditions: read-out: Luminescence level inhibitory rate at test compound 3 μM (%)
# Method: The Jurkat cells used for the reporter test were cultured in a culture medium (RPMI (Invitrogen), 10% FCS (AusGeneX), 100 U/mL penicillin, 100 μg/mL streptomycin). On the day of the test, 4×10^7 cells were recovered by a centrifugal operation (1000 rpm, 5 min.) and suspended in PBS (phosphate buffered saline) (Invitrogen). Thereafter, the cells were recovered again by a centrifugal operation, and suspended in 2 mL of R buffer (NEON transfection kit, Invitrogen). […] Gene transfer was performed by Electroporation apparatus (NEON, Invitrogen) under the conditions of pulse voltage 1350 V, interval 10 milliseconds, number of times 3. The cells after gene transfer were suspended in 40 mL of a reaction medium (RPMI, 10% Lipid reduced FCS (HyClone), 10 mM HEPES (pH 7.5), 100 U/mL penicillin, 100 μg/mL streptomycin, 5 μM lovastatin), and plated in a 96 well plate by 90 μL. A test compound diluted with the reaction medium was added by 10 μL, and the cells were cultured overnight in an incubator. Bright-Glo (Promega) was added by 100 μL, and the mixture was stirred at room temperature for 10 min, and the luminescence level was measured by Envision (PerkinElmer).
# [4] = test compound 3 μM, Jurkat cells
SMILES,inhibition at 1 µM (RORγt [1]) [%],inhibition at 1 µM (RORγt [2]) [%],inhibition at 3 µM (RORγt [3]; [4]) [%],inhibition at 3 µM (RORγt [3]; Jurkat) [%]
"COc1ccc2c(c1)CCN(C(=O)c1cc(O)no1)C2C(=O)Nc1ccc(C(C)(C)C)c(Cl)c1 (stereo not drawn) [Example 10, N-(4-tert-butyl-3-chlorophenyl)-2-((3-hydroxy-1,2-oxazol-5-yl)carbonyl)-6-methoxy-1,2,3,4-tetrahydroisoquinoline-1-carboxamide]",98.9,43.8,98.8,–
"CCOc1ccc2c(c1)CCN(C(=O)CCCC(=O)O)[C@H]2C(=O)Nc1cc(F)c(C(C)(C)COC)c(F)c1 [Example 164, 5-((1R)-1-((3,5-difluoro-4-(1-methoxy-2-methylpropan-2-yl)phenyl)carbamoyl)-6-ethoxy-3,4-dihydroisoquinolin-2(1H)-yl)-5-oxopentanoic acid]",101,96,101,–
"COc1ccc2c(c1)CCN(C(=O)Cc1cc(O)no1)[C@H]2C(=O)Nc1cc(F)c([Si](C)(C)C)c(F)c1 [Example 85, (1R)-N-(3,5-difluoro-4-(trimethylsilyl)phenyl)-2-((3-hydroxy-1,2-oxazol-5-yl)acetyl)-6-methoxy-1,2,3,4-tetrahydroisoquinoline-1-carboxamide]",103,99,–,101
"CCOc1ccc2c(n1)CCN(C(=O)c1cc(O)no1)[C@H]2C(=O)Nc1cc(F)c2c(c1)CCC2(C)C [Example 145, (5R)-2-ethoxy-N-(7-fluoro-1,1-dimethyl-2,3-dihydro-1H-inden-5-yl)-6-((3-hydroxy-1,2-oxazol-5-yl)carbonyl)-5,6,7,8-tetrahydro-1,6-naphthyridine-5-carboxamide]",102,92,100,–
"COc1ccc2c(c1)CCN(C(=O)c1ccc(=O)[nH]c1)C2C(=O)Nc1ccc([Si](C)(C)C)c(F)c1 (stereo not drawn) [Example 4, N-(3-fluoro-4-(trimethylsilyl)phenyl)-6-methoxy-2-((6-oxo-1,6-dihydropyridin-3-yl)carbonyl)-1,2,3,4-tetrahydroisoquinoline-1-carboxamide]",101,81.9,–,99.7
"COc1ccc2c(c1)CCN(C(=O)CC#N)[C@H]2C(=O)Nc1cc(F)c(C(C)(C)C)c(F)c1 [Example 84, (1R)-N-(4-tert-butyl-3,5-difluorophenyl)-2-(cyanoacetyl)-6-methoxy-1,2,3,4-tetrahydroisoquinoline-1-carboxamide]",101,92,100,–
"COc1ccc2c(n1)CCN(C(=O)c1cc(O)no1)[C@H]2C(=O)Nc1cc(F)c([Si](C)(C)C)c(F)c1 [Example 122, (5R)-N-(3,5-difluoro-4-(trimethylsilyl)phenyl)-6-((3-hydroxy-1,2-oxazol-5-yl)carbonyl)-2-methoxy-5,6,7,8-tetrahydro-1,6-naphthyridine-5-carboxamide]",102,99,–,103
"COc1ccc2c(c1)CCN(C(=O)c1cc(O)no1)C2C(=O)Nc1ccc([Si](C)(C)C)c(F)c1 (stereo not drawn) [Example 3, N-(3-fluoro-4-(trimethylsilyl)phenyl)-2-((3-hydroxy-1,2-oxazol-5-yl)carbonyl)-6-methoxy-1,2,3,4-tetrahydroisoquinoline-1-carboxamide]",101,92.7,–,99.6
"COc1ccc2c(c1)CCN(C(=O)c1cc(O)no1)C2C(=O)Nc1ccc(C(C)(C)C)c(F)c1 (stereo not drawn) [Example 9, N-(4-tert-butyl-3-fluorophenyl)-2-((3-hydroxy-1,2-oxazol-5-yl)carbonyl)-6-methoxy-1,2,3,4-tetrahydroisoquinoline-1-carboxamide]",100,77.3,101,–

# Source: US10053468B2, “Heterocyclic compound” (TAKEDA PHARMACEUTICAL COMPANY LIMITED, priority 2013, dated 2018)
